Reference: US7355042B2, “Treatment of CNS disorders using CNS target modulators” (Hypnion, Inc., priority 2001, dated 2008)

Assays:
male Wistar rats = assay: Sleep-wakefulness, locomotor activity and body temperature monitoring (SCORE-2000); assay type: in vivo, rat; conditions: for Average Bout-Length / Duration / Maximum Bout Length / NREM Accum. / NREM Peak (%/hr) / Onset: 30 mg/kg PO at CT-18
[1] = target: T1, H1 receptor from bovine cellular membranes (Bos taurus, UniProt P30546); assay: H1 binding assay, [3H]pyrilamine displacement; conditions: for IC50: Table 6, Series 11, unit inferred
T1 construct: the H1 receptor was from bovine cellular membranes; from tissue
T1 sequence (P30546 whole entry): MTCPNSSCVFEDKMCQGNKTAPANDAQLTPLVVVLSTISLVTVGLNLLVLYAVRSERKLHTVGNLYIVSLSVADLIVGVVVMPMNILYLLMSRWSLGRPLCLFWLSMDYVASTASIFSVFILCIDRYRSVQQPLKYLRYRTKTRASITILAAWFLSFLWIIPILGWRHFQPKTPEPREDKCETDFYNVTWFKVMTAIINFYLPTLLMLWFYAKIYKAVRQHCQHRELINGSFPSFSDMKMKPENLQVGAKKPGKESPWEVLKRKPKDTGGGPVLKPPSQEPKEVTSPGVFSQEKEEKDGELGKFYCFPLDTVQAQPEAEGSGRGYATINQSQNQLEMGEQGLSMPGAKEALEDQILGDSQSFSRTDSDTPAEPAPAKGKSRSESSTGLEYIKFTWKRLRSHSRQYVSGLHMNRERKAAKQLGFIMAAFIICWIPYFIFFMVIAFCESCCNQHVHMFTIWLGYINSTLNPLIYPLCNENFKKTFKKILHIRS

[2] = target: T2, human recombinant M1 muscarinic receptor expressed in CHO cells (Homo sapiens, UniProt P11229); assay: M1 binding assay (human recombinant), [3H]-scopolamine N-methyl chloride; conditions: Table 7; human recombinant; read-out: Receptor Binding Data (Ki nM) M1
T2 construct: expressed in transfected cells; host or cells: CHO cells
T2 sequence (P11229 1-460): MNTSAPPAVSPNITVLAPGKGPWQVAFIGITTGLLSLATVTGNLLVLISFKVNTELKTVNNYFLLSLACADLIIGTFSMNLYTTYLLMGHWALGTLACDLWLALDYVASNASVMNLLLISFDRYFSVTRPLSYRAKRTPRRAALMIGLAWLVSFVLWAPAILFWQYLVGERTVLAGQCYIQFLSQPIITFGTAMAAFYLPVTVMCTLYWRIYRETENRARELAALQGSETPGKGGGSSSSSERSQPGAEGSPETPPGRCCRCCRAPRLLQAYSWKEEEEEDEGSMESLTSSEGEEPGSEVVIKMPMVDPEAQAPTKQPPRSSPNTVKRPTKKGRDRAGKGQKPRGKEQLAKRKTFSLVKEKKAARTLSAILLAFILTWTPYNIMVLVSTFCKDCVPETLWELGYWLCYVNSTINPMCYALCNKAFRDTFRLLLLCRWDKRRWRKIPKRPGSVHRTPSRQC

[3] = target: T3, human recombinant M3 muscarinic receptor expressed in CHO cells (Homo sapiens, UniProt P20309); assay: M3 binding assay (human recombinant)
T3 construct: expressed in transfected cells; host or cells: CHO cells
T3 sequence (P20309 whole entry): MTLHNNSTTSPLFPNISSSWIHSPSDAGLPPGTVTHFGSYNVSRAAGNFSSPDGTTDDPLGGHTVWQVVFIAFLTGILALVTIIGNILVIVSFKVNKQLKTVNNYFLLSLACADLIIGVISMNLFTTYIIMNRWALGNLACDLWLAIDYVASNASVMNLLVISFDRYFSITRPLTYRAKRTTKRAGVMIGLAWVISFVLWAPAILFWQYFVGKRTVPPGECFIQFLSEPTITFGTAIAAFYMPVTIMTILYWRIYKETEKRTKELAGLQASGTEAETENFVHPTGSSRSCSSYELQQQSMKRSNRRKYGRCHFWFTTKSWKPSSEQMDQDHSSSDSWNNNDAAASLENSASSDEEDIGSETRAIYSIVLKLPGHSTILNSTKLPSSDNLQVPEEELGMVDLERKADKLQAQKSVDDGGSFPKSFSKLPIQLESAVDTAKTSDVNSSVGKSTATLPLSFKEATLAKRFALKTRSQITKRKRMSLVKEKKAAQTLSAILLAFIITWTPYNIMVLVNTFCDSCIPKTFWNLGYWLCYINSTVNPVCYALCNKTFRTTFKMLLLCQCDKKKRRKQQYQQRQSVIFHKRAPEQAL

[4] = 30 mg/kg and 10 mg/kg, intraperitoneal bolus at CT-18
[5] = intraperitoneal at CT-18, 11f 10 or 30 mg/kg, 6f and 15f 30 mg/kg

| SMILES | IC50 [1] [nM] | Average Bout-Length (male Wistar rats) [min] | Duration (male Wistar rats) [h] | Maximum Bout Length (male Wistar rats) [min] | NREM Accum. (male Wistar rats) [min] | NREM Peak (%/hr) (male Wistar rats) | Onset (male Wistar rats) [min] | cumulative effect on total sleep time (TST) during the initial 5 hours post-treatment, relative to baseline (male Wistar rats; 30 mg/kg IP versus Zolpidem 10 mg/kg) | sleep continuity, as assessed by sleep bout length (male Wistar rats; [4]) | time post-treatment over which total sleep time was increased (male Wistar rats; [4]) [h] | total sleep time (male Wistar rats; [4]) | REM sleep inhibition (male Wistar rats; [5]) | rebound insomnia (male Wistar rats; [5]) | Ki ([1]; Receptor Binding Data (Ki nM) H1, Table 7) [nM] | Ki [2] [nM] | Ki [3] [nM] |
| --- | --- | --- | --- | --- | --- | --- | --- | --- | --- | --- | --- | --- | --- | --- | --- | --- |
| O=C(O)CCN1CCC(OC(c2ccccc2)c2ccccc2)CC1 [Compound 6a, 3-[4-(diphenylmethoxy)piperidin-1-yl]propanoic acid] |  | 7.0 | 5 | 12.8 | 26.5 | 56.4 | 65 |  |  |  |  |  |  |  |  |  |
| O=C(O)CCN1CCC(=C(c2ccccc2)c2ccccc2)CC1 [Compound 11a] | 308 | 11.2 | 6 | 18.7 | 41.2 | 67.3 | 85 |  |  |  |  |  |  |  |  |  |
| O=C(O)CN1CCC(C(c2ccccc2)c2ccccc2)CC1 [Compound 16a, [4-(Diphenylmethyl)piperidin-1-yl]ethanoic acid] |  | 5.4 | 5 | 11.8 | 20.7 | 57.9 | 180 |  |  |  |  |  |  | 43.9 | > 10000 | > 10000 |
| Cl.O=C(O)CCCN1CCC(OC(c2ccccc2)c2ccccc2)CC1 [Compound 53a] |  | 4.3 | 4 | 9.1 | 17.4 | 49.2 | 30 |  |  |  |  |  |  |  |  |  |

Further lines, with some results ahead:

| IC50 [1] [nM] | SMILES | Average Bout-Length (male Wistar rats) [min] | Duration (male Wistar rats) [h] | Maximum Bout Length (male Wistar rats) [min] | NREM Accum. (male Wistar rats) [min] | NREM Peak (%/hr) (male Wistar rats) | Onset (male Wistar rats) [min] | cumulative effect on total sleep time (TST) during the initial 5 hours post-treatment, relative to baseline (male Wistar rats; 30 mg/kg IP versus Zolpidem 10 mg/kg) | sleep continuity, as assessed by sleep bout length (male Wistar rats; [4]) | time post-treatment over which total sleep time was increased (male Wistar rats; [4]) [h] | total sleep time (male Wistar rats; [4]) | REM sleep inhibition (male Wistar rats; [5]) | rebound insomnia (male Wistar rats; [5]) | Ki ([1]; Receptor Binding Data (Ki nM) H1, Table 7) [nM] | Ki [2] [nM] | Ki [3] [nM] |
| --- | --- | --- | --- | --- | --- | --- | --- | --- | --- | --- | --- | --- | --- | --- | --- | --- |
| 378 | CC(C)OC(=O)CCN1CCC(=C(c2ccccc2)c2ccccc2)CC1 [Compound 11d, Isopropyl 3-[4-(diphenylmethylidene)piperidin-1-yl]propanoate] | 11.0 | 6 | 20.1 | 55.5 | 58.5 | 135 |  |  |  |  |  |  |  |  |  |
| 718 | CC(C)COC(=O)CCN1CCC(=C(c2ccccc2)c2ccccc2)CC1 [Compound 11e, Isobutyl 3-[4-(diphenylmethylidene)piperidin-1-yl]propanoate] | 8.3 | 6 | 19.1 | 49.6 | 59.6 | 80 |  |  |  |  |  |  |  |  |  |
| 1070 | O=C(CCN1CCC(=C(c2ccccc2)c2ccccc2)CC1)OC1CCCC1 [Compound 11f, Cyclopentyl 3-[4-(diphenylmethylidene)piperidin-1-yl]propanoate] |  |  |  |  |  |  | induced more TST than Zolpidem | increased sleep continuity | 3 | significantly increased total sleep time | did not, however, produce REM sleep inhibition or rebound insomnia | did not, however, produce REM sleep inhibition or rebound insomnia |  |  |  |
